Test results as given in ChEMBL document CHEMBL5042493, “Enhancing monoamine oxidase B inhibitory activity via chiral fluorination: Structure-activity relationship, biological evaluation, and molecular docking study” (Eur J Med Chem, 2022).
The source made the active and inactive calls. No cut-off for these calls is given here.

Tests used:
[1] = Plasma protein binding in human assessed as unbound fraction at 1 uM measured after 5 hrs by LC-MS/MS analysis; type: ADME, cell-free
[2] = Cmax in Sprague dawley rat at 1 mg/kg, iv measured upto 24 hrs; type: ADME, organism-based; set-up: route intravenous, dose 1 mg/kg, time <=24; conditions: in vivo
[3] = AUC (0-t) in Cynomolgus monkey at 1 mg/kg, iv measured upto 24 hrs; type: ADME, organism-based, Macaca fascicularis; set-up: route intravenous, dose 1 mg/kg, time <=24; conditions: in vivo
[4] = AUC (0-t) in Cynomolgus monkey rat at 5 mg/kg, po measured upto 24 hrs; type: ADME, organism-based, Macaca fascicularis; set-up: route oral, dose 5 mg/kg, time <=24; conditions: in vivo
[5] = Oral bioavailability in Sprague dawley rat at 5 mg/kg measured upto 24 hrs; type: ADME, organism-based; conditions: in vivo
[6] = Toxicity in MPTP-induced C57BL/6 mouse model of Parkinson's disease assessed as effect on locomotor activity by measuring rearing activity at 0.625 to 1.25 mg/kg, ip pretreated for 15 mins followed by MPTP challenge and measured after 5 days post MPTP challenge; type: organism-based; conditions: in vivo, 120 h, dose 0.625-1.25 mg/kg, time 5 day
[7] = Plasma protein binding in dog assessed as unbound fraction at 1 uM measured after 5 hrs by LC-MS/MS analysis; type: ADME, cell-free, Canis lupus familiaris
hERG (KCNH2) = hERG (KCNH2) (Homo sapiens, UniProt Q12809); test: Inhibition of human ERG expressed in CHO-K1 cells by Patch Clamp method; type: toxicity, cell-based; conditions: CHO-K1 cells expressing human ERG
Cytochrome P450 2C8 = biological target: T1, Cytochrome P450 2C8 (Homo sapiens, UniProt P10632); test: Inhibition of human CYP2C8 preincubated for 10 min followed by addition of NADPH and measured after 45 min by LC-MS/MS analysis; type: ADME
T1 sequence (P10632 whole entry): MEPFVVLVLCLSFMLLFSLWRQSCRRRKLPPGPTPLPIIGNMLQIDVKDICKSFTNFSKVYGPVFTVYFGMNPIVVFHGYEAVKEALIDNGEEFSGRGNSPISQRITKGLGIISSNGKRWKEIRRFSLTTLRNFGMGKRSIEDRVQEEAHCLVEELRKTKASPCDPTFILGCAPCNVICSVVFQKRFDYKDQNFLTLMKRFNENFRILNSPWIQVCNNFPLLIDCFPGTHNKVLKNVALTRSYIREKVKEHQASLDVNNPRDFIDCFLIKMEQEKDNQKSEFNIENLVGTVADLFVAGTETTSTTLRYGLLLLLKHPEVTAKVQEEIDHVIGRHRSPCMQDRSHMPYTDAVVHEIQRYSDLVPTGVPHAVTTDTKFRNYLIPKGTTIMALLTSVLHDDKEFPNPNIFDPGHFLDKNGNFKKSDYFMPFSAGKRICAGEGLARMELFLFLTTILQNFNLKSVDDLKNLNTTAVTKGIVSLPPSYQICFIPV

[8] = Half life in Cynomolgus monkey at 1 mg/kg, iv measured upto 24 hrs; type: ADME, organism-based, Macaca fascicularis; conditions: in vivo
[9] = AUC (0-t) in Sprague dawley rat at 1 mg/kg, iv measured upto 24 hrs; type: ADME, organism-based; set-up: route intravenous, dose 1 mg/kg, time <=24; conditions: in vivo
Rattus norvegicus = test: Neuroprotective activity against galantamine-induced Sprague-Dawley rat model of Parkinson's disease assessed as reduction in galantamine-induced tremulous jaw movements at 0.156 to 1.25 mg/kg, ip preincubated with galantamine for 15 mins followed by compound addition and measured after 15 mins; type: functional, organism-based; conditions: dose 0.156-1.25 mg/kg
[10] = Volume of distribution at steady state in Sprague dawley rat at 1 mg/kg, iv measured upto 24 hrs; type: ADME, organism-based; conditions: in vivo, read-out: Vdss
[11] = biological target: 5-hydroxytryptamine receptor 2B (Homo sapiens) (UniProt P41595); test: Binding affinity to 5-HT2B receptor (unknown origin) expressed in CHO-K1 cells; type: cell-based; conditions: concentration not given here
[12] = Volume of distribution at steady state in Cynomolgus monkey at 1 mg/kg, iv measured upto 24 hrs; type: ADME, organism-based, Macaca fascicularis; conditions: in vivo, read-out: Vdss
[13] = Metabolic stability in mouse liver microsome assessed as half life at 1 uM measured after 60 min in presence of NADPH by LC-MS/MS analysis; type: ADME; conditions: liver microsomes
[14] = Plasma protein binding in monkey assessed as unbound fraction at 1 uM measured after 5 hrs by LC-MS/MS analysis; type: ADME, cell-free, Macaca mulatta; conditions: rhesus monkey

Sequence of 5-hydroxytryptamine receptor 2B (Homo sapiens) (P41595 whole entry): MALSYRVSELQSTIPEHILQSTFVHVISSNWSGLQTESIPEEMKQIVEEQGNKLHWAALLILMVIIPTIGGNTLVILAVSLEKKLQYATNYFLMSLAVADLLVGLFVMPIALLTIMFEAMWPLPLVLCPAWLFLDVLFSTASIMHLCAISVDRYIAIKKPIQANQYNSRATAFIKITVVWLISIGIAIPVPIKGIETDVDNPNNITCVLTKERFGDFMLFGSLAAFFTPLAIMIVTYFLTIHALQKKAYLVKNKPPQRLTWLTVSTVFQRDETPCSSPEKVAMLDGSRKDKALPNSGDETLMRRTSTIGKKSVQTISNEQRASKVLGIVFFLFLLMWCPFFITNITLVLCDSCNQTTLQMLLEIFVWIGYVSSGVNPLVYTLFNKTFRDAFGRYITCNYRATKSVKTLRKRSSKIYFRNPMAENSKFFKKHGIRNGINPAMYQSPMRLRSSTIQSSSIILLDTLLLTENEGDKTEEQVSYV
Sequence of hERG (KCNH2) (Q12809 whole entry): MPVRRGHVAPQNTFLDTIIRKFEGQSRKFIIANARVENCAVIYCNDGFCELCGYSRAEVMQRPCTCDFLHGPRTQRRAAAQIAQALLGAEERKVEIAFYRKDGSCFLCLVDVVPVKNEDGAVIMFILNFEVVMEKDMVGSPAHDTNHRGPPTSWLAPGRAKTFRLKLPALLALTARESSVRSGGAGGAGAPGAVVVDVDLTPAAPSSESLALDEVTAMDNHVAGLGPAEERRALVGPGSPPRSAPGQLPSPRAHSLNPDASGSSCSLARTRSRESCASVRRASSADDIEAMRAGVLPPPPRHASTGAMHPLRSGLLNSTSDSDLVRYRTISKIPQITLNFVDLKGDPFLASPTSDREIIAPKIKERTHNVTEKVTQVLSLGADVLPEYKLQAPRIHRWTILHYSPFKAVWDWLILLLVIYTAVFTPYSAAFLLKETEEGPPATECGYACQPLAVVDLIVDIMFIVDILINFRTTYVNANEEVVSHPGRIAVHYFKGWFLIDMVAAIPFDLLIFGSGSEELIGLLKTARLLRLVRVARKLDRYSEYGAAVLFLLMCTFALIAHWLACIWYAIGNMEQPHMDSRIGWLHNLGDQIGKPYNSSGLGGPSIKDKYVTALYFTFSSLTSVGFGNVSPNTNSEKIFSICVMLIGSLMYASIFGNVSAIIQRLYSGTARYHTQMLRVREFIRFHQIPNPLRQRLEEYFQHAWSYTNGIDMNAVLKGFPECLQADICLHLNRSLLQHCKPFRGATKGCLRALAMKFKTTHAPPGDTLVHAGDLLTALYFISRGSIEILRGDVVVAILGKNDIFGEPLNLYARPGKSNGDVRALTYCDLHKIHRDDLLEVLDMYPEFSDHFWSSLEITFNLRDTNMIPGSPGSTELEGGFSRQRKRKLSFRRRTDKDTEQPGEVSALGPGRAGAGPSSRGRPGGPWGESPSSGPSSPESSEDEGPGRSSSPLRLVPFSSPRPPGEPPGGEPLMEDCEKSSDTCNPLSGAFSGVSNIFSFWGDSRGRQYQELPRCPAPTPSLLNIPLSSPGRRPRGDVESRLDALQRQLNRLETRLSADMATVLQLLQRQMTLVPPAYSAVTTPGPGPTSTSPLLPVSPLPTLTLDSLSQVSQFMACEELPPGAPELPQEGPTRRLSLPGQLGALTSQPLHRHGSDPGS

fraction unbound at 5 h, 1 µM [1]: 0.0363
Cmax [2]: 690 ng/mL
AUC(0-t) at 24 h [3]: 2120 ng·h/mL
AUC(0-t) at 24 h [4]: 11300 ng·h/mL
bioavailability [5]: 55.2%
fraction unbound at 5 h, 1 µM [7]: 0.0429
IC50 (Cytochrome P450 2C8): > 29 µM
half-life [8]: 106 min
AUC(0-t) at 24 h [9]: 505 ng·h/mL
Vd [10]: 1.37 L/kg
inhibition [11]: 57%
Vd [12]: 1.06 L/kg
half-life at 1 µM [13]: 9.37 min
fraction unbound at 5 h, 1 µM [14]: 0.0407
Structure (SMILES): NC(=O)[C@@H]1C[C@H](F)CN1Cc1ccc(OCc2cccc(F)c2)cc1
Activity [6]: Non-Toxic
IC50 (hERG (KCNH2)): > 30 µM
Activity (Rattus norvegicus): Active
